From US5416111A, “Cyano-containing n-phenyl-amino-terminated non-peptidyl α-succinamidoacyl aminodiols as anti-hypertensive agents” (G.D. Searle & Co., priority 1993, dated 1995)

Assays:
human renin = molecular target: T1, human renin (Homo sapiens, UniProt P00797); assay: human renin inhibition assay in vitro (angiotensin I produced, radioimmunoassay); type: biochemical; details: human plasma, pH 7.4, two hours at 37° C.
T1 construct: purchased National Institute for Biological Standards, London
T1 sequence (P00797 67-406): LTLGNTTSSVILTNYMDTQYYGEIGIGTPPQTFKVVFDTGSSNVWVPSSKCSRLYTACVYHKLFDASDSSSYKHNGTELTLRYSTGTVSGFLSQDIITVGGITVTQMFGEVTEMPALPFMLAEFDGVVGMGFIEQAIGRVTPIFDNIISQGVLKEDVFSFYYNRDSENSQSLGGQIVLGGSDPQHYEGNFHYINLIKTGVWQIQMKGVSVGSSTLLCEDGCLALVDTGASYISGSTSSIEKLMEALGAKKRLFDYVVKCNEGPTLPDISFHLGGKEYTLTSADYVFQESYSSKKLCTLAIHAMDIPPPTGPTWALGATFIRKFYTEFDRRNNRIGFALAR
Procedure: (§1) Compounds of Formula I were evaluated as inhibitors of human renin in an in vitro assay, as follows: This human renin inhibition test has been previously described in detail [Papaioannou, et al., Clinical and Experimental Hypertension, A7(9), 1243-1257 (1985)]. Human renin was obtained from the National Institute for Biological Standards, London. In a total volume of 0.25 mL 100 mM Tris-acetate buffer at pH 7.4, 25×10-6 Goldblatt units of renin, 0.05 mL of plasma from human volunteers taking oral contraceptives, 6.0 mM sodium EDTA, 2.4 mM phenylmethyl sulfonyl fluoride, 1.5 mM 8-hydroxyquinoline, 0.4 mg/mL BSA, and 0.024 mg/mL neomycin sulfate were incubated for two hours at 37° C. in the presence or absence of renin inhibitors. The produced angiotensin I was determined by radioimmunoassay (New England Nuclear kit). Compounds to be assayed were solubilized in either ethyl alcohol or DMSO and diluted with 100 mM Tris-acetate buffer at pH 7.4 to the appropriate concentration. The final concentration of organic solvent in the reaction mixture was less than 1%. Control incubations at 37° C. were used to correct for effects of organic solvent on renin activity.

hog renin = hog renin inhibition assay in vitro (angiotensin I produced, radioimmunoassay); type: biochemical; details: 20 micromolar synthetic tetradecapeptide substrate, pH 7.4, one hour at 37° C.
Procedure: as §1
The hog renin inhibition assay was performed in a manner similar to the human renin assay, with the following modifications. […] The amount of angiotensin I produced was determined as for the human renin inhibition assay.

IC50 (human renin): 0.74 µM | IC50 (hog renin): 2.8 µM
Compound: CC(C)C[C@H](NC(=O)C(CC(=O)N1CCOCC1)Cc1cccc2ccccc12)C(=O)N[C@@H](CC1CCCCC1)[C@@H](O)CO (stereo partly drawn) [Example 9, 3-(N-morpholinocarbonyl)-2-(R,S)-(1-naphthylmethyl)-propionyl-L-leucinamide of (2S ,3R)-2-amino-1-cyclohexyl-3,4-dihydroxybutane]
